# Test results as given in publication PMC8219027, “A small-molecule inhibitor of the BRCA2-RAD51 interaction modulates RAD51 assembly and potentiates DNA damage-induced cell death” (Cell Chemical Biology, 2021).
# Like-named read-outs stand apart in the source and are kept apart here.
# How the values were obtained:
# [1] = target: T1, HumRadA2 (Pyrococcus furiosus, UniProt O74036, D220A/E219S/I169M/K221M/V202Y/Y201A); test: Isothermal titration calorimetry (ITC) against HumRadA2; type: binding, Pyrococcus furiosus (humanised RadA)
# Procedure: ITC was performed using a Microcal iTC200 instrument at 25°C. Experiments typically involved titrating a 10-fold excess of ligand in the injection syringe against the protein ([HumRadA2] = 60 μM or [ChimRAD51] = 20 μM) in either 200 mM Tris buffer at pH 7.5 and 100 mM NaCl (HumRadA2) or 20 mM potassium phosphate at pH 8.0 and 192 mM KCl (ChimRAD51). Titrations were typically performed with 5-10% DMSO and care was taken to ensure that the DMSO concentrations in the protein and ligand solutions were well matched. The raw ITC data were fitted using a single-site binding model in Microcal ITC LLC data analysis program in the Origin 7.0 package to derive the dissociation constant, stoichiometry and ΔH of binding. […]
# [2] = target: ChimRAD51; parameters: method as in Moschetti et al., 2016; conditions: ref Moschetti et al., 2016; read-out: Kd of binding to ChimRAD51 by ITC; cited from earlier work
# [3] = target: ChimRAD51; parameters: method as in Moschetti et al., 2016; conditions: direct binding of BRC4 peptide; ref Moschetti et al., 2016; read-out: Kd of binding to ChimRAD51 by FP; cited from earlier work
# [4] = system: HCT116 cells; test: SRB growth inhibition assay; type: cell-based, human; conditions: SRB 96 h, Figure 6D (cell line not given)
# Procedure: (§1) Adherent cell lines (HCT116 and A549 cells) were seeded into flat-bottomed tissue culture 96-well plates in a volume of 150 μL of growth medium. HCT116 cells were seeded at 750 cells per well and A549 cells were seeded at 1000 cells per well. After 24 hours, compounds dissolved in DMSO were diluted in growth medium and were added to cells such that the final DMSO concentration was 1% (v/v) and the final volume in the well was 200 μL. Cells were then incubated in the presence of compound for 96 hours before fixation.
# (§2) Medium was removed from cells and 100 μL of cold 1% (v/v) trichloroacetic acid was added for 30 minutes at 4 degrees. The plates were washed three times in tap water and left to dry at room temperature. The fixed cells were stained in a 0.057% sulphorodamine B/1% acetic acid solution (w/v) and incubated at room temperature with agitation for 30 minutes after which the dye was removed and the plates washed in 1% (v/v) acetic acid and left to dry. The dye was then solubilised in 10 mM Tris solution (pH8) and incubated for 30 minutes under agitation. The plates were then read on a PHERAstar plus plate reader (BMG Labtech) using the fluorescence intensity module (540-590 nm). Growth inhibition was calculated relative to DMSO controls and GI50 values were calculated using Graphpad Prism.
# [5] = target: T1, HumRadA2; conditions: ref Scott et al., 2016; read-out: Kd against HumRadA2 by ITC; cited from earlier work
# [6] = system: HCT116 cells (BRCA2 wild-type); test: SRB growth inhibition assay, combination of CAM833 and PARP1 inhibitor AZD2461; type: cell-based, human; conditions: HCT116, fixed dose 0.1 μM or 1 μM, 96 h
# Procedure: as §1, §2
# For the PARP inhibitor experiments, the SRB method was used as described above to measure growth inhibition with the exception that cells were seeded into 150 μl medium and then a combination of either 25 μl of CAM833, AZD2461 (SelleckChem; #S7029) or DMSO was added to give a total volume of 200 ul in the well.
# [7] = Aqueous solubility; conditions: for profiling in cell-based assays
# [8] = target: ChimRAD51 (chimeric RAD51/RadA protein) (Pyrococcus furiosus | human); test: fluorescence polarisation; competition: 10 nM Alexa Fluor 488-labelled BRC4 peptide and 50 nM ChimRAD51 (about 80-90% saturation), increasing concentration of competitor; isotherms fitted with the expression of Wang (1995)
compound,measurement,setting,value
"Nc1cc2ccccc2cc1C(=O)O [Compound 3, 3-amino-2-naphthoic acid]",Kd,[1],1300 µM
BRC4 peptide: BRC4 repeat peptide of BRCA2 (CKEPTLLGFHTASGKKVKIAKESLDKVKNLFDEKEQ; Alexa Fluor 488 (maleimide dye) on the additional N-terminal cysteine),Kd,[2],0.006 µM
same,Kd,[3],0.004 µM
C[C@H](NC(=O)[C@@H]1CCCN1C(=O)[C@H](Cc1c[nH]cn1)NC(=O)c1cc2ccccc2cc1N)C(N)=O [Compound 4],Kd,[1],3 µM
"N.N.O=C([O-])C1(C(=O)[O-])CCC1.[Pt+2] [Carboplatin, reference compound]",IC50,[4]; 0 Gy IR,9.9 µM
same,IC50,[4]; 1 Gy IR,9 µM
same,IC50,[4]; 2 Gy IR,10.6 µM
same,IC50,[4]; 3 Gy IR,11.1 µM
Ac-FHTA-NH2 [Compound 1],Kd,[5],280 µM
"COC1CCN(C(=O)c2cc(Cc3n[nH]c(=O)c4ccccc34)ccc2F)CC1 [AZD2461, reference compound]",growth inhibition by AZD2461 alone (in words),[6],little effect
"C[C@H](NC(=O)c1ccc2ccccc2c1)C(=O)N1CCC[C@H]1C(=O)N[C@@H](C)c1ccccc1 [Compound 5, (S)-1-((2-Naphthoyl)-L-alanyl)-N-((S)-1-phenylethyl)pyrrolidine-2-carboxamide]",Kd,[1],0.22 µM
same,solubility in aqueous media (in words),[7],too insoluble
"N-terminal ""FxxA"" half of the BRC4 repeat (FxxA half-peptide)",Kd,[8],36 µM
